The source of these data is patent US20090137572A1, “2-substituted-4-heteroaryl-pyrimidines useful for the treatment of proliferative disorders” (priority 2004, published 2009).

Each structure is given as a SMILES string.

Holding throughout (test): Kinase selectivity profile, kinase inhibition IC50 (Table 4), ATP 100 μM
Assay type in all cases: biochemical

In test [1] the target is T1, protein kinases (panel of Table 4) (Homo sapiens, UniProt P28482).
T1 construct: other: kinase ERK2; ATP 100 μM
T1 sequence (P28482 whole entry): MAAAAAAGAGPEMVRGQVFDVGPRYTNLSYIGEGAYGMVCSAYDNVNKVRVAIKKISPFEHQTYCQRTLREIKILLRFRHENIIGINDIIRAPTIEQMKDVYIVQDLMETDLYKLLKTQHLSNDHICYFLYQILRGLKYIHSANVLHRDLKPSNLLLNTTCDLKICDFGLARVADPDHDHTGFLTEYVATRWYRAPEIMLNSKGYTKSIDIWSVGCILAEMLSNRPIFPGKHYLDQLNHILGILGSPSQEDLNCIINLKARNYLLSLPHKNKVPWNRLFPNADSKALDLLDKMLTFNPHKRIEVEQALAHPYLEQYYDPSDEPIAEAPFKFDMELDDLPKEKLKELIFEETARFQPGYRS
Particulars: kinase ERK2. How it is done:
(§1) For the assays shown in Table 3, the kinases were assayed at the following ATP concentrations: SAPK4, PKBΔph, GSK3b, SAPK3, CK2, MKK1, PIM2, IKKB, ERK8, and PRK2 at 5 μM; JNK, PRAK, ROCK-II, SAPK2b, CDK2, CHK1, MSK1, CSK, P70S6K, PKA, CK1, MAPKAP-K2, SGK, PKCa, PDK1, NEK 7, and MAPKAP-K3 at 20 μM; SAPK2a, LCK, AMPK, MAPK2, DYRK1a, MAPKAP-K1a, NEK-6, NEK2a, PBK, CAMK-1, SRPK-1, JNK3, MNK2, RSK2, MNK1, PKBB, and SmMLCK at 50 μM. For the assays in Table 4 the ATP concentration was 100 μM throughout.

Test [2] has as its target T2, protein kinases (panel of Table 4) (Homo sapiens, UniProt Q96GD4).
T2 construct: other: kinase Aurora B; ATP 100 μM
Conditions: kinase Aurora B. How it is done: as §1

The target of test [3] is T3, protein kinases (panel of Table 4) (Homo sapiens, UniProt O14965).
T3 construct: other: kinase Aurora A; ATP 100 μM
T3 sequence (O14965 1-403): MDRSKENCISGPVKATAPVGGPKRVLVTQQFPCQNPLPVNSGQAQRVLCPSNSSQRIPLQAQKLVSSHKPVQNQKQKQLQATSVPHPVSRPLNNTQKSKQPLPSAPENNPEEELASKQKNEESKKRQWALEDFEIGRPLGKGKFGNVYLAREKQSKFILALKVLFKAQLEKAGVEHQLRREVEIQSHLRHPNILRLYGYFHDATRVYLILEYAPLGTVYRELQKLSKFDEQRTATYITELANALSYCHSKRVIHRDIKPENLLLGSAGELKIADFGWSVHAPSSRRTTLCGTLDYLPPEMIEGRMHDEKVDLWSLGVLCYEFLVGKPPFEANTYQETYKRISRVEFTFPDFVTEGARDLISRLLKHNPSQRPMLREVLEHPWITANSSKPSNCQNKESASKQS
Particulars: kinase Aurora A. How it is done:
as §1

Test [4] has as its target T4, protein kinases (panel of Table 4) (Homo sapiens, UniProt P09619).
T4 construct: other: kinase PDGFb; ATP 100 μM
Conditions: kinase PDGFb. The method, then:
as §1

Test [5] has as its target T5, protein kinases (panel of Table 4) (Homo sapiens, UniProt P49840).
T5 construct: other: kinase GSK3a; ATP 100 μM
Conditions: kinase GSK3a. The method, then:
as §1

For test [6], the target named is T6, protein kinases (panel of Table 4) (Homo sapiens, UniProt P53350).
T6 construct: other: kinase Plk1; ATP 100 μM
T6 sequence (P53350 whole entry): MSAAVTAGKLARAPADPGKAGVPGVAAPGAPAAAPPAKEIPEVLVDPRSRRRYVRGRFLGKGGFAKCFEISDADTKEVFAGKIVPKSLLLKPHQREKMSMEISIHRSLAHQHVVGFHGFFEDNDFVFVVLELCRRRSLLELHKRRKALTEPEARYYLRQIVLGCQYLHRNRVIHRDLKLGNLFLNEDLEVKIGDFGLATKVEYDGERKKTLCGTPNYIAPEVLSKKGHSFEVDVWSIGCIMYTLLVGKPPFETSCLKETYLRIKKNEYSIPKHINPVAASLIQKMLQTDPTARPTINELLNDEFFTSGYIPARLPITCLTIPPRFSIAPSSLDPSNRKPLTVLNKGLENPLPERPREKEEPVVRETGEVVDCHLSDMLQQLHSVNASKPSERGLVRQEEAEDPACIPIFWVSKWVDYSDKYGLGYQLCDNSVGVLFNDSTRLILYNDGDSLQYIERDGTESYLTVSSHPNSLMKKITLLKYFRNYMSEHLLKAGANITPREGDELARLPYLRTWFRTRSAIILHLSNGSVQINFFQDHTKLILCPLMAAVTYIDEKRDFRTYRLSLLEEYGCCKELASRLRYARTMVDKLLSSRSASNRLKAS
Particulars: kinase Plk1. How it is done: as §1

Test [7] deals with T7, protein kinases (panel of Table 4) (Homo sapiens, UniProt P50750).
T7 construct: other: kinase CDK9T1; ATP 100 μM
T7 sequence (P50750 whole entry): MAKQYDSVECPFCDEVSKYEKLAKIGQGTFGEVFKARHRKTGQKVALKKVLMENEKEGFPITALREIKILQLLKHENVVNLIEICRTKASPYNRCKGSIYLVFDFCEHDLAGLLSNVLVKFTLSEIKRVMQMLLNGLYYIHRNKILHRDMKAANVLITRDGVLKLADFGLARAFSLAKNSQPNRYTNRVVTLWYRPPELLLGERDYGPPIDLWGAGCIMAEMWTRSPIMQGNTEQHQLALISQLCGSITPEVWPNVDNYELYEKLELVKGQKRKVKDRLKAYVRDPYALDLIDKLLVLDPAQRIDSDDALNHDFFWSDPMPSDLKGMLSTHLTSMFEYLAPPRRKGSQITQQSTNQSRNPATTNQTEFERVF
Conditions: kinase CDK9T1. How it is done: as §1

Test [8] deals with T8, protein kinases (panel of Table 4) (Homo sapiens, UniProt Q00534).
T8 construct: other: kinase CDK6D3; ATP 100 μM
T8 sequence (Q00534 whole entry): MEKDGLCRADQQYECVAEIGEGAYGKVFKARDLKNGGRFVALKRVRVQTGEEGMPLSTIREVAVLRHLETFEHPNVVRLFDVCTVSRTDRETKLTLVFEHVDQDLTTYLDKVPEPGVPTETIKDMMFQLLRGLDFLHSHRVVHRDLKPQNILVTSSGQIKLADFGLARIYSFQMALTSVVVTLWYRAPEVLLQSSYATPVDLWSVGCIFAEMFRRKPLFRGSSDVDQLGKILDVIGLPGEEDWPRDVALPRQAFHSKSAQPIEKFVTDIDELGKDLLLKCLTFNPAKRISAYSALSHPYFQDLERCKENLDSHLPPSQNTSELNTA
Conditions: kinase CDK6D3. How it is done: as §1

Test [9] addresses T9, protein kinases (panel of Table 4) (Homo sapiens, UniProt P06493).
T9 construct: other: kinase CDK1B; ATP 100 μM
Conditions: kinase CDK1B. How it is done: as §1

In test [10] the target is T10, protein kinases (panel of Table 4).
T10 construct: other: kinase CaMKII; ATP 100 μM
Particulars: kinase CaMKII. How it is done: as §1

Test [11] concerns the target T11, protein kinases (panel of Table 4) (Homo sapiens, UniProt P36888).
T11 construct: other: kinase Flt3; ATP 100 μM
T11 sequence (P36888 1-993): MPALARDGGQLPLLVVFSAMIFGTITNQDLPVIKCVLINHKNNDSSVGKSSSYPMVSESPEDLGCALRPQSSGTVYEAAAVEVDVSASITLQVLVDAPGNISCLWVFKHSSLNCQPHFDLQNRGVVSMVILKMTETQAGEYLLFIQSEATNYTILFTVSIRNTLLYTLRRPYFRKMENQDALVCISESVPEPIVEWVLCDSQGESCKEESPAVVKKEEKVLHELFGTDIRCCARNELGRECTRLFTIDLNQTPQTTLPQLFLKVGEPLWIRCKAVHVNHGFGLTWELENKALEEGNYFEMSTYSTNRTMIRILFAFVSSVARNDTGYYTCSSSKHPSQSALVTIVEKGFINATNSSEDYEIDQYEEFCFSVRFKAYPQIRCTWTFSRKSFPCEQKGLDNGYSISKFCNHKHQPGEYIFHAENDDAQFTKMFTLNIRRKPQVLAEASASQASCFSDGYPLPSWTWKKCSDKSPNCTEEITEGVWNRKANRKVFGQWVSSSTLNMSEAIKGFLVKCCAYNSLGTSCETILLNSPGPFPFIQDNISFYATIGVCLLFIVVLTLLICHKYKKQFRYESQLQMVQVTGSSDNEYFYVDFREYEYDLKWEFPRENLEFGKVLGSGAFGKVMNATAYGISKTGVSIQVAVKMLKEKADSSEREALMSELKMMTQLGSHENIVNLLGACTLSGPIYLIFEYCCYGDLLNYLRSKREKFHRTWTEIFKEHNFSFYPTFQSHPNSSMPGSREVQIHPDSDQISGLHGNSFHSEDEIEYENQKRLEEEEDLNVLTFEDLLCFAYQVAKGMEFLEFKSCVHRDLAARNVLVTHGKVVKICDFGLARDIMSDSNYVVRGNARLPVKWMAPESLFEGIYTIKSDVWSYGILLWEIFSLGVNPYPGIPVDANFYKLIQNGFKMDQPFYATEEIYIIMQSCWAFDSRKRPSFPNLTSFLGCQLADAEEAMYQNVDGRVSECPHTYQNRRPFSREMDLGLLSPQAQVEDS
Particulars: kinase Flt3. The method, then:
as §1

In test [12] the target is T12, protein kinases (panel of Table 4) (Homo sapiens, UniProt P50613).
T12 construct: other: kinase CDK7H; ATP 100 μM
T12 sequence (P50613 whole entry): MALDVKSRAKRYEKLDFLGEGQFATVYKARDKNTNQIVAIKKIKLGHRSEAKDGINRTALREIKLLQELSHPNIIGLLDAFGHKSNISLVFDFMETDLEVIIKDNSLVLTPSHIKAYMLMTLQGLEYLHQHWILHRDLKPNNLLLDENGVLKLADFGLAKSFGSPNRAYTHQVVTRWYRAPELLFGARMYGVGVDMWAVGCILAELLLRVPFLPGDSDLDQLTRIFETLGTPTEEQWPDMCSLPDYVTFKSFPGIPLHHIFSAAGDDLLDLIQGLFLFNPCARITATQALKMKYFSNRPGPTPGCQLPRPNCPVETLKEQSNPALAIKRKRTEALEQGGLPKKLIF
Conditions: kinase CDK7H. How it is done: as §1

In test [13] the target is T13, protein kinases (panel of Table 4) (Homo sapiens, UniProt P06239).
T13 construct: other: kinase Lck; ATP 100 μM
T13 sequence (P06239 whole entry): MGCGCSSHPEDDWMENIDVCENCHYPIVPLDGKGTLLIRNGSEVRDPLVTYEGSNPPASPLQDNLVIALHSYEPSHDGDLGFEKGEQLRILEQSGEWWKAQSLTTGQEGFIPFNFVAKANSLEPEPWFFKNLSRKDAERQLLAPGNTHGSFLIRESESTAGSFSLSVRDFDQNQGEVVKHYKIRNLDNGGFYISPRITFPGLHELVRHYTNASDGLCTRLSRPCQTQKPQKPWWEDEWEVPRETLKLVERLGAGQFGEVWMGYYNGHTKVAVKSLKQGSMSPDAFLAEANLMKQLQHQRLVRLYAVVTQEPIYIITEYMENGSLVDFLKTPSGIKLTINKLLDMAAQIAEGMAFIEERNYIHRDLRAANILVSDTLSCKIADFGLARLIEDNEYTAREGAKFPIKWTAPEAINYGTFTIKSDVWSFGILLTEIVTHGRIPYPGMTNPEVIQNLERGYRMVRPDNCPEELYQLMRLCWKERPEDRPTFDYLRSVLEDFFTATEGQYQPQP
Conditions: kinase Lck. The method, then: as §1

T5 sequence (P49840 whole entry): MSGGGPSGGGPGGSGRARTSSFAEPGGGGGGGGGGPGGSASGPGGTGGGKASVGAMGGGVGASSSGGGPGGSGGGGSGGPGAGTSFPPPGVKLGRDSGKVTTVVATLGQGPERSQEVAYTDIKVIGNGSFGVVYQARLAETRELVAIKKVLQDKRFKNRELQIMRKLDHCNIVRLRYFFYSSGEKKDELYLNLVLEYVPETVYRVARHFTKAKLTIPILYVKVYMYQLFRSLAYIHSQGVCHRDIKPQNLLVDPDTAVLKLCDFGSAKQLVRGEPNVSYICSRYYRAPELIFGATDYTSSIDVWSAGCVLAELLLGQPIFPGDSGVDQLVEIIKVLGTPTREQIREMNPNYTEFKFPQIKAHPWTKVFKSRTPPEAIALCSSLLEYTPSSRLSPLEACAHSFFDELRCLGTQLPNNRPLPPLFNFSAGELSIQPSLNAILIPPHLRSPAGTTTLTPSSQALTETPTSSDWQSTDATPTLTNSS
T9 sequence (P06493 whole entry): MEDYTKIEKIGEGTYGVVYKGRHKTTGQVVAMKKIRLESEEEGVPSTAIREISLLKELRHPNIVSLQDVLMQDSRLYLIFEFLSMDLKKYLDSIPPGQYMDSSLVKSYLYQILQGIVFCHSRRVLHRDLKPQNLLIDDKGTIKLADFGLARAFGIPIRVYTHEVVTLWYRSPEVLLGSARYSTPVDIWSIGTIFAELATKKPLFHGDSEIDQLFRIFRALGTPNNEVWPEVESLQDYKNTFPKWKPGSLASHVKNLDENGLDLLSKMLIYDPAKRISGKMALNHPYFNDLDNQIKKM
T2 sequence (Q96GD4 whole entry): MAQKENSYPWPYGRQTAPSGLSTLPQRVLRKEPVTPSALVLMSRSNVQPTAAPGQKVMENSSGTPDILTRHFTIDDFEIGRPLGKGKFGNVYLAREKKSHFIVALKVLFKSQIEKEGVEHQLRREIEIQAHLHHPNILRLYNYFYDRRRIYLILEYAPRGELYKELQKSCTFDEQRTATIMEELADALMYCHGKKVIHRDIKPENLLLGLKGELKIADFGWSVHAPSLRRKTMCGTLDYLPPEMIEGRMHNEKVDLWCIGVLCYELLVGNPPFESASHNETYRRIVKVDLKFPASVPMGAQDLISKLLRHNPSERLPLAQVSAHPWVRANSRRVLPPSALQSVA
T4 sequence (P09619 whole entry): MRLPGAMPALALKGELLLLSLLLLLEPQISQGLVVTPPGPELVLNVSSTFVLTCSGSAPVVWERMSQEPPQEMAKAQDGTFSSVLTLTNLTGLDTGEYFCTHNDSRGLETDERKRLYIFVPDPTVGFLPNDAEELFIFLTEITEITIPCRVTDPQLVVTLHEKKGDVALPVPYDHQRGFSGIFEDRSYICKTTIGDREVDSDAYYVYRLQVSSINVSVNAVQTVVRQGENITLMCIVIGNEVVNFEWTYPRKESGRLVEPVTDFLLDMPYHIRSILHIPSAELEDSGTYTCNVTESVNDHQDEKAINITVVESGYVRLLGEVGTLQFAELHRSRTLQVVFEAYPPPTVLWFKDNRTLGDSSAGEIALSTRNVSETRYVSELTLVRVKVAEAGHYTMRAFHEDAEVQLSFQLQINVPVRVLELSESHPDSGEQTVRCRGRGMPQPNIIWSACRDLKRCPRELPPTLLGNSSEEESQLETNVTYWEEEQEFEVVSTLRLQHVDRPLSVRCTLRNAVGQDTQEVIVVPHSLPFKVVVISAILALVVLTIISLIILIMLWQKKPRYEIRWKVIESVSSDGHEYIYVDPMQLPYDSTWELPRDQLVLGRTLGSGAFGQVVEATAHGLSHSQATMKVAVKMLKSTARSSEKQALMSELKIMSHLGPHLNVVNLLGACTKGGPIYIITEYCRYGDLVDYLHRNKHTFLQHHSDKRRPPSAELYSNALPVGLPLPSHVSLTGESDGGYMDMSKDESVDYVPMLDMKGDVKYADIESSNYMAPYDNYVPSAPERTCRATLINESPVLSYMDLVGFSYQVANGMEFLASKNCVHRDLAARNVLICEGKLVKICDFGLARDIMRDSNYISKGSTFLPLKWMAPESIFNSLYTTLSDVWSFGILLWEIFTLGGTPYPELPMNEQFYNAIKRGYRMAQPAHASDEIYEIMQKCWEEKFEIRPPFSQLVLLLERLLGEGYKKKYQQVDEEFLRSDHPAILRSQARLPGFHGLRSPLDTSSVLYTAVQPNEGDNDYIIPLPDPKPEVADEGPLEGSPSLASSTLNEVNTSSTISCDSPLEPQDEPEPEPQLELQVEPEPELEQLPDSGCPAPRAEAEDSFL

As for `CNc1nc(C)c(-c2ccnc(Nc3cccc(S(C)(=O)=O)c3)n2)s1` [Compound 27, (3-Methanesulfonyl-phenyl)-[4-(4-methyl-2-methylamino-thiazol-5-yl)-pyrimidin-2-yl]-amine], the IC50 was > 10 µM in [1]; 0.26 µM in test [2]; 0.32 µM in [3]; 0.52 µM in [4]; 0.012 µM in test [5]; > 10 µM in [6]. Moreover, the 50% inhibitory concentration (IC50) in test [7] is 0.001 µM; in [8], 0.33 µM; in [9] it was 0.26 µM; in test [10], > 10 µM; in [11], 0.065 µM; in test [12], 0.2 µM. The molecule further gave an IC50 in test [13] of 0.5 µM.
For `CNc1nc(C)c(-c2ccnc(Nc3ccc(C)c(S(=O)(=O)N4CCOCC4)c3)n2)s1` [Compound 37, [4-(4-Methyl-2-methylamino-thiazol-5-yl)-pyrimidin-2-yl]-[4-methyl-3-(morpholine-4-sulfonyl)-phenyl]-amine], the IC50 is > 10 µM in test [1]; 0.24 µM in test [2]; 1.1 µM in [3]; 6.6 µM in [4]; 0.65 µM in test [5]; > 10 µM in test [6]. For the same molecule, the IC50 was 0.022 µM in test [7]; > 10 µM in [8]; > 10 µM in [9]; > 10 µM in [10]; 0.17 µM in test [11]; 5.9 µM in test [12]. The same molecule came in with an IC50 in test [13] of 4.9 µM.
Take `CNc1nc(C)c(-c2ccnc(Nc3cccc(S(N)(=O)=O)c3)n2)s1` [Compound 19, 3-[4-(4-Methyl-2-methylamino-thiazol-5-yl)-pyrimidin-2-ylamino]-benzenesulfonamide]: the IC50 in test [1] was > 10 µM; in test [2] it was 0.02 µM; in test [3] it was 0.04 µM; in [4] it was 0.49 µM; in test [5] it was 0.16 µM; in test [6] it was > 10 µM. In addition, the IC50 amounted to 0.003 µM in test [7]; 0.039 µM in test [8]; 0.2 µM in [9]; 4.3 µM in test [10]; 0.03 µM in test [11]; 0.054 µM in [12]. Half-maximal inhibition in test [13] (IC50) was put at 0.49 µM.
In the case of `CCNc1nc(C)c(-c2ccnc(Nc3ccc(N4CCNCC4)cc3)n2)s1` [Compound 59, [4-(2-Ethylamino-4-methyl-thiazol-5-yl)-pyrimidin-2-yl]-(4-piperazin-1-yl-phenyl)-amine], the IC50 in test [1] is > 10 µM; in test [2] it was 0.016 µM; in [3], 0.09 µM; in test [4], 0.21 µM; in test [5], > 10 µM; in test [6] it was > 10 µM. The IC50 was 0.11 µM in [7]; 0.029 µM in test [8]; 1.2 µM in test [9]; 1 µM in test [10]; 0.017 µM in [11]; 0.16 µM in test [12]. The same molecule returned an IC50 in test [13] of 0.12 µM.
As for `Cc1ccc(Nc2nccc(-c3sc(N)nc3C)n2)cc1S(=O)(=O)N1CCOCC1` [Compound 38, [4-(2-Amino-4-methyl-thiazol-5-yl)-pyrimidin-2-yl]-[4-methyl-3-(morpholine-4-sulfonyl)-phenyl]-amine], the IC50 in test [1] is > 10 µM; in test [2], 0.14 µM; in test [3] it was 0.45 µM; in test [4], 4.8 µM; in test [5], 0.96 µM; in [6], > 10 µM. In addition, the concentration for half-maximal inhibition (IC50) in test [7] was 0.028 µM; in test [8] it was 4.8 µM; in test [9], > 10 µM; in [10], 6.2 µM; in test [11], 0.2 µM; in [12], 0.65 µM. Besides, inhibition in [13] was half-maximal at 2.6 µM (IC50).
With `COCCNS(=O)(=O)c1cccc(Nc2nccc(-c3sc(N)nc3C)n2)c1` [Compound 55, 3-[4-(2-Amino-4-methyl-thiazol-5-yl)-pyrimidin-2-ylamino]-N-(2-methoxy-ethyl)-benzenesulfonamide], the IC50 in test [1] was > 10 µM; in test [2], 0.11 µM; in test [3] it was 0.16 µM; in [4], 1.9 µM; in [5], 0.29 µM; in test [6], > 10 µM. Further, the IC50 was 0.03 µM in test [7]; 2.1 µM in [8]; 2.9 µM in test [9]; > 10 µM in test [10]; 0.18 µM in [11]; 0.62 µM in test [12]. This molecule also showed an IC50 in [13] of 1.8 µM.
